How the values were obtained:
[1] = system: regional brain metabolism; conditions: cited from earlier work; for effect of chronic treatment on regional brain metabolism (PET): adult ADHD patients, Matochik et al. 1994
adult ADHD subjects = conditions: i.v., Ernst et al. 1998; cited from earlier work
[2] = system: cerebellum of the most hyperactive ADHD boys; test: T2 relaxometry of the cerebellum, blinded placebo-controlled daily treatment (summary study); assay type: in vivo, human; conditions: eight of the most hyperactive boys; F3,21=5.011, p=0.0089
Description: With this particular arrangement, an apparatus for indirectly assessing blood volume in the striatum (caudate and putamen and cerebellum) under steady-state conditions and for non-invasively diagnosing ADHD is provided. […] In one study eleven boys with ADHD had higher T2 relaxation times than six non-ADHD boys. The probability of this occurring by chance is 0.8%. The relaxation times correlated with the child's capacity to sit still, and their accuracy in performing a computerized attention task. Product-moment correlation coefficients (denoted r) for each of the above activities as well as with a probability of finding this occurrence by chance (denoted p) were computed using conventional techniques. […] It was discovered that ADHD symptoms may be closely tied to functional abnormalities in the putamen and cerebellum which are predominantly involved in the regulation and coordination of motoric behavior. […] It should also be appreciated that the apparatus and technique of the present invention may be equally applied to other brain regions (or even other organs) and may be useful for diagnosing conditions other than ADHD.
Referring now to FIG. 5, a T2 relaxation time image of the brain and cerebellum is shown. Circumscribed ROIs are illustrated for the cerebellar vermis V as well as, right R and left L cerebellar hemispheres. […]

[3] = system: putamen of children with ADHD; conditions: stated as known; cited from earlier work
[4] = system: caudate or thalamus of children with ADHD; test: T2 relaxometry of caudate and thalamus, blinded placebo-controlled daily treatment; assay type: in vivo, human
Description: (§1) With this particular arrangement, an apparatus for indirectly assessing blood volume in the striatum (caudate and putamen and cerebellum) under steady-state conditions and for non-invasively diagnosing ADHD is provided. […] In one study eleven boys with ADHD had higher T2 relaxation times than six non-ADHD boys. The probability of this occurring by chance is 0.8%. The relaxation times correlated with the child's capacity to sit still, and their accuracy in performing a computerized attention task. Product-moment correlation coefficients (denoted r) for each of the above activities as well as with a probability of finding this occurrence by chance (denoted p) were computed using conventional techniques. […] It was discovered that ADHD symptoms may be closely tied to functional abnormalities in the putamen and cerebellum which are predominantly involved in the regulation and coordination of motoric behavior. […]
(§2) Turning now to FIG. 2, processing begins in steps 40 and 42 in which after positioning subjects to be tested (e.g. children or other persons possibly having brain dysfunction) in a scanning region of an MRI system of the type described above in conjunction with FIG. 1, and instructing the subjects to remain as still as possible, images of particular regions of interest (ROI) are acquired by perturbing the magnetic field in the subject and taking readings at particular times. […]

[5] = system: putamen of children with ADHD; test: T2 relaxometry of the putamen, blinded placebo-controlled daily treatment; assay type: in vivo, human; conditions: p=0.006
Description: as §1, §2

[6] = system: cerebellar hemispheres of boys with ADHD; test: T2 relaxometry (fMRI) of the cerebellar hemispheres after one week of daily treatment; assay type: in vivo, human; conditions: Dose F=0.88, p>0.4; Dose x Activity F=0.47, p>0.7
Experimental: (§3) In one particular embodiment, T2 relaxometry was used to indirectly assess blood volume in the cerebellum (hemispheres and midline vermis) of ten ADHD boys treated continuously for one week with placebo and three different doses of MPH. […] Following each week of treatment, and within 1-3 hours of their afternoon dose, testing for drug efficacy was performed using objective measures of activity.
Ten boys with ADHD (9.3±1.6 yr), and six healthy comparison subject boys (10.2±1.5 yr) were studied. Children with ADHD were screened using structured diagnostic interview (the Schedule for Affective Disorders and Schizophrenia for School-Age Children—Epidemiologic Version, “K-SADS-E”) and included if they met criteria for ADHD, and had at least 6 of 9 symptoms of inattention or hyperactivity-impulsivity. […]
On test days, parents were instructed to give the afternoon dose 1 hour prior to their MRI appointment. Medication administration was assessed at each visit to insure that time between ingestion and testing were held constant for each subject throughout the study. […]
Values of T2 (x, y) and S (TE=0, x, y) were then calculated on a pixel-wise basis, assuming exponential decay, i.e. 1n [S (x, y, n)]=1n [S (TE=0), x, y]−TE (n)/T2 (x, y) where (x, y) describe the location of the pixel; n characterizes the echo number, from 1 to 32; and S is the image signal intensity. […]

[7] = system: cerebellar vermis of boys with ADHD; test: T2 relaxometry (fMRI) of the cerebellar vermis after one week of daily treatment; assay type: in vivo, human; conditions: for decrease in vermal T2-RT relative to placebo (average): three least active boys with ADHD
Experimental: as §3
Ten boys with ADHD (9.3±1.6 yr), and six healthy comparison subject boys (10.2±1.5 yr) were studied. Children with ADHD were screened using structured diagnostic interview (the Schedule for Affective Disorders and Schizophrenia for School-Age Children—Epidemiologic Version, “K-SADS-E”) and included if they met criteria for ADHD, and had at least 6 of 9 symptoms of inattention or hyperactivity-impulsivity. Children then took part in a triple blind (parent, child, rater), randomized, placebo-controlled study on the effects of methylphenidate (0, 0.5, 0.8, 1.5 mg/kg/day in two divided doses) on activity and fMRI. Children were treated continuously for one week with placebo or specific dose of methylphenidate. They were tested on day seven for drug response using objective measures of activity immediately following fMRI.
On test days, parents were instructed to give the afternoon dose 1 hour prior to their MRI appointment. Medication administration was assessed at each visit to insure that time between ingestion and testing were held constant for each subject throughout the study.
During each examination, 3 categories of images were obtained: (1) Scout images (typically T1-weighted sagittal images); (2) High resolution T1 matched axial images through the ten planes for which maps of T2 were generated; and (3) 32 spin echo, echoplanar image sets, with TE incremented by 4 msec in each consecutive image set (e.g. TE (1)=32 msec, TE (2)=36 msec, . . . TE (32)=156 msec) through the same ten axial planes ([…], Slice thickness=7 mm with a 3 mm skip, in-plane resolution=3.125 mm×3.125 mm, FOV=200 mm). The 32 TE-stepped images were then transferred to an off-line workstation and corrected for in plane motion using a modification of the DART image registration algorithm.
Values of T2 (x, y) and S (TE=0, x, y) were then calculated on a pixel-wise basis, assuming exponential decay, i.e. 1n [S (x, y, n)]=1n [S (TE=0), x, y]−TE (n)/T2 (x, y) where (x, y) describe the location of the pixel; n characterizes the echo number, from 1 to 32; and S is the image signal intensity. Linear least-squares regression was used to calculate a single T2 relaxation time measure for each pixel (x, y). Calculations of regional T2 relaxation time were made for regions of interest (ROI) drawn manually under the guidance of conventional T1-wighted matched MRI images in 2 to 4 slices through the cerebellum using anatomic boundaries observed in T1-weighted, preliminary T2-RT maps, and an atlas of the cerebellum. ROI slice selections were based on an assessment of the presence of cerebral spinal fluid in order to minimize partial volume artifacts, which result in abnormally elevated T2 relaxation times (values>100 msec were rejected). Sixteen voxel ROI's in the vermis were conservatively limited to square regions ([…]), to avoid encroaching into ventricular space and to provide consistency between slices and subjects.
FIGS. 7A and 7B show representative cerebellar ROIs including the vermis V and the left and right cerebella C. Delineation of regions and analysis of imaging data were performed on coded images, by an analyst very familiar with cerebellar anatomy who was blind to the identity, diagnosis, and treatment condition of the subject.

## C[C@H](N)Cc1ccccc1 [dextroamphetamine]
[1]
  effect of chronic treatment on regional brain metabolism (PET): no consistent effect
[1]; i.v., adult ADHD subjects, Ernst et al. 1998
  effect on global or regional metabolic rates: no consistent effect
Adult ADHD subjects
  effect on attention: robust effects on attention

## COC(=O)C(c1ccccc1)C1CCCCN1 (stereo not drawn) [methylphenidate]
[2]
  effect on relaxation times in the cerebellum: dose-dependently altered
[3]
  effect of daily high-dose treatment on T2-RT in the putamen: changed T2-RT in the putamen
[1]
  effect of chronic treatment on regional brain metabolism (PET): no consistent effect
[1]; subjects with high availability of DA D2 receptors, Volkow et al. 1997
  effect on frontotemporal metabolism: increased frontotemporal metabolism
[1]; subjects with low availability of D2 receptors, Volkow et al. 1997
  effect on metabolism: decreased metabolism
[4]
  change of relaxation times in caudate or thalamus: nor did relaxation times in these regions change
[5]
  effect on relaxation times in the putamen: significantly altered
[6]
  effect of treatment on T2-RT in the adjacent cerebellar hemispheres: No effect
[7]; high dose (1.5 mg/kg/day, one week), seven hyperactive ADHD boys
  increase in vermal T2-RT relative to placebo: 5.1%
[7]; high dose (1.5 mg/kg/day, one week)
  decrease in vermal T2-RT relative to placebo (average): 3.9%
[7]; high dose, F=15.98, df=1, 8, p=0.004
  group effect (hyperactive vs non-hyperactive boys) on percent change in vermis T2-RT: significant group effect
[7]; highest dose, hyperactive subjects, 95% CI in brackets
  effect size (Cohen d) of the medication-induced change in T2-RT: 2.13 (95% CI, 0.82-3.44)
[7]; increase in the most active ADHD children, reduction in those not objectively hyperactive
  effect of moderate and high doses on T2-RT (direction by basal activity): increased T2-RT in a rate-dependent manner
[7]; intermediate dose (0.8 mg/kg/day, one week), seven hyperactive ADHD boys
  increase in vermal T2-RT relative to placebo: 2.1%
[7]; intermediate dose (0.8 mg/kg/day, one week)
  decrease in vermal T2-RT relative to placebo (average): 3.5%
[7]; intermediate dose, F=6.75, df=1, 8, p=0.04
  group effect (hyperactive vs non-hyperactive boys) on percent change in vermis T2-RT: significant group effect
[7]; low dose (0.5 mg/kg/day, one week), seven boys at least 20% more active than the most active comparison subject
  increase in vermal T2-RT relative to placebo: 1.2%
[7]; low dose (0.5 mg/kg/day, one week)
  decrease in vermal T2-RT relative to placebo (average): 1.3%
[7]; low dose, F=0.63, df=1, 8, p=0.63
  group effect (hyperactive vs non-hyperactive boys) on percent change in vermis T2-RT: non-significant group effect
[7]; ten ADHD boys, F=1.167, df=3, 27, p=0.34
  effect of dose on cerebellar or vermal T2-RT, repeated-measures ANOVA without covariate: failed to reveal any significant effect of dose
[7]; ten ADHD boys, F=4.85, df=3, 24, p=0.009, effect of dose linear
  effect of treatment on vermal T2-RT, analysis of covariance with motor activity: robust effect

— patent publication US6898455B2, “Method for providing optimal drug dosage” (The McLean Hospital Corporation, priority 1999, dated 2005)
